According to paper PMC5007466, “VCP recruitment to mitochondria causes mitophagy impairment and neurodegeneration in models of Huntington's disease” (Nature Communications, 2016):

Key:
HdhQ7 striatal cells = experiment: Total GFP-LC3B protein level; format: cell-based, mouse; conditions: Flag-VCP + GFP-LC3B, 36 h
Description: Protein concentrations were determined by Bradford assay. Protein was resuspended in Laemmli buffer, loaded on SDS–PAGE, and transferred onto nitrocellulose membranes. Membranes were probed with the indicated antibodies, followed by visualization with ECL. Representative blots have been cropped for presentation. Images of full-size blots are presented in Supplementary Fig. 9. […]
mouse striatal cells were treated with thapsigargin (1μM) or tunicamycin (10μ g/ml) for 16 hours i n the presence or absence of HV -3 (3 µM). GRP78 total protein levels were determined by western blot analysis. Representative blots of three independent experiments are shown. Actin was used here as a loading control. (b) Tw e n t y -four hours of serum starvation was performed in HD mouse striatal cells.
Caspase-3 activity analysis was performed in the indicated groups. Data are mean ± SEM of three independent experiments. (c) Flag-VCP and GFP-LC3B were co-transfected into HdhQ7 striatal cells.
Total lysates were isolated after 36 hours of transfection. The GFP -LC3B levels were examined by western blot analysis. Actin was used as a loading control. Histogram: quantitation of GFP-LC3B total protein level. Data are mean ± SEM of three independent experiments.
(1 picture or pasted object on this page, not shown here)

R6/2 mice = experiment: DARPP-32 immunostaining of striatum; format: in vivo, mouse; conditions: R6/2, 3 mg kg^−1 per day, n=6
Description: Male hemizygous R6/2 mice (Tg) and their age-matched wt littermates (5-week-old) were implanted with a 28-day osmotic pump (Alzet, Cupertino CA) containing TAT control peptide or HV-3 peptide, which delivered peptides to the mice at a rate of 3 mg kg^−1 per day. The first pump was implanted subcutaneously in the back of 5-week-old mice between the shoulders and replaced once, after 4 weeks.
Mice were deeply anaesthetized and transcardially perfused with 4% paraformaldehyde in PBS. Brains were processed for paraffin embedment. Brain sections (5 μm, coronal) were used for immunohistochemical localization of DARPP-32 (1:500, Epitomics) using the IHC Select HRP/DAB kit (Millipore). Quantitation of DARPP-32 immunostaining was conducted using NIH image J software. The same image exposure times and threshold settings were used for sections from all treatment groups.

[1] = LC/MS detection of HV-3 in mouse brain and plasma; format: in vivo; conditions: LC/MS m/z 506.4
Description: The new figures above and related figure legends have all been added to the revised manuscript. The related discussion has been added on page 17 line 2 and line 5. The methods of ITC and immunoprecipitation with biotin-peptides have been added to the Method section (see pages 21-23) of […]
Comment 3: The in vivo use of TAT-tagged HV-3 peptide lacks essential PK/PD data. What is the PK/PD of the reagent with their osmotic pump delivery? The data in Supplemental Fig. 5B is simply unacceptable, with different background between control and HV-3, and with only a few cells shown and without any quantitation. Is there any long-term toxicity of such delivery? Did they measure adaptive immune response to the HV-3 peptide? And if there is such a response, do the immune reactions rather than inhibition of mHTT-VCP interactions underlying therapeutic effects? Response: For the analysis of PK/PD, we have to subcontract with bio-company. The cost will be a minimum of $80,000. Due to limited funds, we cannot afford such an expensive experiment. Working with the Mass Spectrometry Core Facility at Cleveland Clinic Foundation Research Center, we attempted to determine the concentration of HV-3 after treatment in mice by pump implantation. […]
by protein precipitation methods (see figure below). […]
proteins in mice after treatment. The data seem to be consistent with our findings that HV-3 binds to VCP. Because of current technical constraints to dissociate peptide from the binding proteins, we were not able to test the accurate concentration of the peptide HV-3 in brain tissues and plasma. Therefore, we […]
We would appreciate it if the reviewer could understand.
Based on the reviewer’s comment, in the revised manuscript, we removed the original supplemental […]
Regarding toxicity of HV3, we performed toxicity analysis of HV-3 in mice at Stanford University. […]
ions in positive electrospray ionization and the ion at 5 charged (m/z 506.4) has the highest intensity on the Shimadzu LC/MS 8050. (B) HV-3 at 5 charged (m/z 506.4) in positive electrospray ionization was monitored. […]

## CSCC[C@H](NC(=O)[C@@H](NC(=O)[C@H](CC(C)C)NC(=O)[C@@H](NC(=O)[C@H](Cc1c[nH]cn1)NC(=O)CCCCCNC(=O)[C@H](CCCNC(=N)N)NC(=O)[C@H](CCCNC(=N)N)NC(=O)[C@H](CCCNC(=N)N)NC(=O)[C@H](CCC(N)=O)NC(=O)[C@H](CCCNC(=N)N)NC(=O)[C@H](CCCNC(=N)N)NC(=O)[C@H](CCCCN)NC(=O)[C@H](CCCCN)NC(=O)[C@H](CCCNC(=N)N)NC(=O)CNC(=O)[C@@H](N)Cc1ccc(O)cc1)C(C)C)C(C)C)C(=O)N[C@@H](CS)C(=O)N[C@@H](C)C(=O)N[C@H](C(N)=O)[C@@H](C)O [HV-3]
HdhQ7 striatal cells
  total GFP-LC3B protein level: no effect on the total protein level of GFP-LC3B
R6/2 mice
  area of DARPP-32-immunostained cells in striatum: increased by HV-3 treatment
[1]; mice, pump implantation
  HV-3 in supernatant of plasma after protein precipitation: not detectable
  HV-3 in total brain lysates, plasma and precipitated plasma proteins: can be detected
[1]; mouse brain total lysates without protein precipitation, legend prints HV-3 (1000 nM)
  HV-3 in brain total lysates over time: day, one week and two weeks after treatment
